System: juvenile hormone receptor of Daphnia magna (DampaMET)
Assay: Yeast reporter (β-galactosidase) assay, transformants with DampaMET and DampaSRC
Type: cell-based
Protocol: Subsequently, a reporter plasmid prepared by inserting the nucleotide sequence shown in SEQ ID NO: 2 into a yeast comprising the DampaMET plasmid and the DampaSRC plasmid introduced thereinto by the lithium acetate method. Thus, Yeast 1 of Invention was obtained. In the same manner, Yeasts 2 to 38 of Invention each comprising the response element according to the present invention and Control yeasts 1 to 9 shown in Table 3 were prepared.
With the use of the Yeast 1 of Invention, reporter activity to methyl farnesoate as a juvenile hormone substance was measured. At the outset, the Yeast 1 of Invention was subjected to pre-culture at 30° C. for 18 hours using the pre-culture medium shown in Table 1 until the turbidity (O.D. 595) of the pre-culture medium reached approximately 0.1. The solution of the pre-cultured cells (10 μl) and 1 μl of the solution of methyl farnesoate diluted to various concentrations with dimethyl sulfoxide (DMSO) were mixed with 90 μl of the main culture solution shown in Table 4 in a 96-well plate, and the mixture was subjected to static culture at 30° C. for 18 hours to prepare a reaction solution. The resultant was designated as a test group.
A reaction solution prepared with the addition of 1 μl of DMSO instead of a diluted methyl farnesoate solution was designated as a control group. Fractions of 10 μl each were collected from the reaction solutions and dispensed into each well of another 96-well plate. Thereafter, 100 μl of an assay reagent comprising a lytic solution (Z buffer: 60 mM Na2HPO4, 40 mM NaH2PO4, 1 mM MgCl2, 10 mM KCl, 2 mM dithiothreitol, 0.20% N-lauroylsarcosine sodium salt) mixed with 1 mg/ml ONPG (orthonitrophenylgalactopyranoside) was dispensed into each well, and the reaction was allowed to proceed at 37° C. for 30 minutes. Thereafter, the absorbance (O.D. 405) and the turbidity (O.D. 595) of the reaction solutions were assayed at the wavelength of 405 nm using a microplate reader (tradename: iMark microplate reader, Bio-Rad Laboratories). The increase of induction was calculated in accordance with the following formula.
The increase of induction is described in Ito-Harashima S et al., FEBS Open Bio., 7 (7): pp. 995-1008, 2017. When the increase of induction is positive, the transformant is determined to have reporter activity to the substance tested. The test was performed once or repeated 3 times, 5 times, or 15 times, and the average increase of induction was calculated. The control yeast 1 was treated in the same manner and reporter activity was compared.
In the same manner as in Test Example 1, the Yeasts 2, 3, 4, 5, 6, 7, 9, 10, 11, 12, 13, 14, 15, 16, 17, 18, 19, and 20 of Invention were subjected to assays of reporter activity to methyl farnesoate. The test was performed in accordance with Test Example 1, and reporter activity of the yeasts indicated above was compared with that of the control yeasts 2, 3, and 4.
With the use of the control yeast 7 comprising a different nucleotide sequence of the C-box (CACGCG) in the response element, the control yeast 8 comprising a different nucleotide sequence of the E-box (CACGTG), and the control yeast 9 comprising different nucleotide sequences of the C-box and the E-box from the relevant nucleotide sequences of the Yeast 4 of Invention, the influence of a core sequence on reporter activity to methyl farnesoate was evaluated. The test was performed in accordance with Test Example 1.
With the use of the Yeast 4 and the Yeast 8 of the present Invention, reporter activity to sex hormones; i.e., 17β-estradiol and testosterone, insect juvenile hormones; i.e., juvenile hormone III, and chemical substances suspected of having endocrine disrupting actions, such as 4-nonyl phenol, bisphenol A, 1,1,1-trichloro-2,2-bis(4-chlorophenyl)ethane (DDT), 2,2-bis(4-chlorophenyl)-1,1-dichloroethylene (DDE), and dieldrin, was assayed. The test was performed in accordance with Test Example 1. All the test substances were treated at 10 μM. […]

With COC(=O)/C=C(\C)CC/C=C(\C)CCC=C(C)C [methyl farnesoate] the increase of induction (Control yeast 1 (cacgcggcggcacgtg x1), 100 pM) was 0.01, the increase of induction (Control yeast 1 (cacgcggcggcacgtg x1), 1 nM) was 0.00 and the increase of induction (Control yeast 2 (cacgcggcggcacgtg x2), 10 nM) was −0.29. The increase of induction (Control yeast 2 (cacgcggcggcacgtg x2), 100 nM) was −0.27, the increase of induction (Control yeast 2 (cacgcggcggcacgtg x2), 1 μM) was −0.34 and the increase of induction (Control yeast 2 (cacgcggcggcacgtg x2), 10 μM) was −0.21. It also gave an increase of induction (Control yeast 2 (cacgcggcggcacgtg x2), 100 μM) of −0.14, an increase of induction (Control yeast 3 (cacgcggcggcacgtg x3), 10 nM) of −0.12 and an increase of induction (Control yeast 3 (cacgcggcggcacgtg x3), 100 nM) of −0.21. It also gave an increase of induction (Control yeast 3 (cacgcggcggcacgtg x3), 1 μM) of −0.27, an increase of induction (Control yeast 3 (cacgcggcggcacgtg x3), 10 μM) of −0.17 and an increase of induction (Control yeast 3 (cacgcggcggcacgtg x3), 100 μM) of −0.17. The increase of induction (Control yeast 4 (cacgcggcggcacgtg x4), 10 nM) was −0.84, the increase of induction (Control yeast 4 (cacgcggcggcacgtg x4), 100 nM) was −1.49 and the increase of induction (Control yeast 4 (cacgcggcggcacgtg x4), 1 μM) was −1.82. It also gave an increase of induction (Control yeast 4 (cacgcggcggcacgtg x4), 10 μM) of −1.05, an increase of induction (Control yeast 4 (cacgcggcggcacgtg x4), 100 μM) of −2.06 and an increase of induction (Control yeast 7 (SEQ ID NO: 25 x4, different C-box), 100 nM) of −0.42. It also gave an increase of induction (Control yeast 7 (SEQ ID NO: 25 x4, different C-box), 10 μM) of −0.12, an increase of induction (Control yeast 8 (SEQ ID NO: 28 x4, different E-box), 100 nM) of 0.00 and an increase of induction (Control yeast 8 (SEQ ID NO: 28 x4, different E-box), 10 μM) of −0.02. For the same compound, the increase of induction (Control yeast 9 (SEQ ID NO: 31 x4, different C-box and E-box), 100 nM) was −0.42, the increase of induction (Control yeast 9 (SEQ ID NO: 31 x4, different C-box and E-box), 10 μM) was −0.12 and the increase of induction (Yeast 1 of Invention (SEQ ID NO: 2 x1), 100 pM) was 0.10. For the same compound, the increase of induction (Yeast 1 of Invention (SEQ ID NO: 2 x1), 1 nM) was 0.08, the increase of induction (Yeast 2 of Invention (SEQ ID NO: 2 x2), 10 nM) was 0.54 and the increase of induction (Yeast 2 of Invention (SEQ ID NO: 2 x2), 100 nM) was 1.26. The increase of induction (Yeast 2 of Invention (SEQ ID NO: 2 x2), 1 μM) was 1.45, the increase of induction (Yeast 2 of Invention (SEQ ID NO: 2 x2), 10 μM) was 1.64 and the increase of induction (Yeast 2 of Invention (SEQ ID NO: 2 x2), 100 μM) was 1.57. It also gave an increase of induction (Yeast 3 of Invention (SEQ ID NO: 2 x3), 10 nM) of 2.05, an increase of induction (Yeast 3 of Invention (SEQ ID NO: 2 x3), 100 nM) of 4.35 and an increase of induction (Yeast 3 of Invention (SEQ ID NO: 2 x3), 1 μM) of 4.45. It also gave an increase of induction (Yeast 3 of Invention (SEQ ID NO: 2 x3), 10 μM) of 4.07, an increase of induction (Yeast 3 of Invention (SEQ ID NO: 2 x3), 100 μM) of 4.29 and an increase of induction (Yeast 4 of Invention (SEQ ID NO: 2 x4), 10 nM, Test Example 2) of 5.13. For the same compound, the increase of induction (Yeast 4 of Invention (SEQ ID NO: 2 x4), 100 nM, Test Example 2) was 7.55, the increase of induction (Yeast 4 of Invention (SEQ ID NO: 2 x4), 100 nM, Test Example 3) was 0.42 and the increase of induction (Yeast 4 of Invention (SEQ ID NO: 2 x4), 1 μM, Test Example 2) was 7.12. The increase of induction (Yeast 4 of Invention (SEQ ID NO: 2 x4), 10 μM, Test Example 2) was 7.44, the increase of induction (Yeast 4 of Invention (SEQ ID NO: 2 x4), 10 μM, Test Example 3) was 0.51 and the increase of induction (Yeast 4 of Invention (SEQ ID NO: 2 x4), 100 μM, Test Example 2) was 7.47. For the same compound, the increase of induction (Yeast 5 of Invention (SEQ ID NO: 2 x5), 10 nM) was 1.33, the increase of induction (Yeast 5 of Invention (SEQ ID NO: 2 x5), 100 nM) was 3.29 and the increase of induction (Yeast 5 of Invention (SEQ ID NO: 2 x5), 1 μM) was 3.72. The increase of induction (Yeast 5 of Invention (SEQ ID NO: 2 x5), 10 μM) was 3.76, the increase of induction (Yeast 5 of Invention (SEQ ID NO: 2 x5), 100 μM) was 4.05 and the increase of induction (Yeast 6 of Invention (SEQ ID NO: 5 x3), 10 nM) was 0.33. For the same compound, the increase of induction (Yeast 6 of Invention (SEQ ID NO: 5 x3), 100 nM) was 1.19 and the increase of induction (Yeast 6 of Invention (SEQ ID NO: 5 x3), 1 μM) was 1.18.
